Source: paper PMC10337138 (Acta Neuropathologica Communications, 2023)

Key:
Conditions in all cases: 1 mM ATP; inhibitor
MAPK8/JNK1 = MAPK8/JNK1 (Homo sapiens, UniProt P45983)
Experimental: (§1) Kinase selectivity panel Kinome profiling was conducted by AssayQuant Technologies (Marlboro, MA) using Sox chromophore technology and Sox-based peptide substrates developed for human kinases in a 384-well format. Compounds were tested at 1 µM in the presence of 1 mM ATP.

CTK = target: T1, CTK (Homo sapiens, UniProt P42679)
T1 construct: gene MATK
T1 sequence (P42679 whole entry): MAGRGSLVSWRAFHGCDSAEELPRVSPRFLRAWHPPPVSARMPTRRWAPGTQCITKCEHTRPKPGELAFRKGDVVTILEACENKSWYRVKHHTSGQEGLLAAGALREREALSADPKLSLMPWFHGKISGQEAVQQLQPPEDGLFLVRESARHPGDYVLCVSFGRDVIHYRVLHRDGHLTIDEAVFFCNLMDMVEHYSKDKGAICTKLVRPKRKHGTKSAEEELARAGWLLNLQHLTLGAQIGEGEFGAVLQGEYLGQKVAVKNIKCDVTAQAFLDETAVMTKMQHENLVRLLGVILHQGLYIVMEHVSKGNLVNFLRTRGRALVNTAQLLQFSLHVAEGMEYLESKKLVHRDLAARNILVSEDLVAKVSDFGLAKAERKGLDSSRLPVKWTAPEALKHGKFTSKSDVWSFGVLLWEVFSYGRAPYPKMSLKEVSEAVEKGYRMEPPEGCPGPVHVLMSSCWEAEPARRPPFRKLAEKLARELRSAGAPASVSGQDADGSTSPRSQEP
Experimental: as §1

PHKG2 = PHKG2 (Homo sapiens, UniProt P15735)
PHKG2, sequence (P15735 whole entry): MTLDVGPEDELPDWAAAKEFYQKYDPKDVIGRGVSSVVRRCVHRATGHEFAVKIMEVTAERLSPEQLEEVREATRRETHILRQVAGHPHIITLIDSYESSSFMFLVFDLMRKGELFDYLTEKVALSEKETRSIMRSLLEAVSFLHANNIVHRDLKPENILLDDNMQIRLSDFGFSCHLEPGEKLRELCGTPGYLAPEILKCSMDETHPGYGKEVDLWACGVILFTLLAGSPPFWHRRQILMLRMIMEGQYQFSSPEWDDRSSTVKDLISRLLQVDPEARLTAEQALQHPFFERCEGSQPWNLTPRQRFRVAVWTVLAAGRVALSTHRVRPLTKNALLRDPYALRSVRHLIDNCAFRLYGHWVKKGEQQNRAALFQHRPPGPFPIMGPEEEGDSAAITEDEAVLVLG
Experimental: as §1

LRRK2 = LRRK2 (Homo sapiens, UniProt Q5S007)
Experimental: as §1

MYLK2 = MYLK2 (Homo sapiens, UniProt Q9H1R3)
Experimental: as §1

NLK = NLK (Homo sapiens, UniProt Q9UBE8)
Experimental: as §1

CSNK1G1/CK1G1 = CSNK1G1/CK1G1 (Homo sapiens, UniProt Q9HCP0)
Experimental: as §1

PTK6/BRK = PTK6/BRK (Homo sapiens, UniProt Q13882)
Experimental: as §1

MASTL = MASTL (Homo sapiens, UniProt Q96GX5)
Experimental: as §1

MINK1 = MINK1 (Homo sapiens, UniProt Q8N4C8)
Experimental: as §1

STK4/MST1 = STK4/MST1 (Homo sapiens, UniProt Q13043)
Experimental: as §1

INSR = INSR (Homo sapiens, UniProt P06213)
Experimental: as §1

PRKCZ/PKCZ = PRKCZ/PKCZ (Homo sapiens, UniProt Q05513)
Experimental: as §1

PDK1 = target: T2, PDK1 (Homo sapiens, UniProt O15530)
T2 construct: gene PDPK1
Experimental: as §1

CSNK2A2/CK2A2 = CSNK2A2/CK2A2 (Homo sapiens, UniProt P19784)
Experimental: as §1

PDGFRA = PDGFRA (Homo sapiens, UniProt P16234)
Experimental: as §1

MAP3K14 = MAP3K14 (Homo sapiens, UniProt Q99558)
Experimental: as §1

CHEK1/CHK1 = CHEK1/CHK1 (Homo sapiens, UniProt O14757)
Experimental: as §1

CAMK2B = CAMK2B (Homo sapiens, UniProt Q13554)
Experimental: as §1

PIM2 = PIM2 (Homo sapiens, UniProt Q9P1W9)
Experimental: as §1

AURKB/AURB = AURKB/AURB (Homo sapiens, UniProt Q96GD4)
Experimental: as §1

PRKCQ/PKCQ = PRKCQ/PKCQ (Homo sapiens, UniProt Q04759)
Experimental: as §1

TNK2/ACK = TNK2/ACK (Homo sapiens, UniProt Q07912)
Experimental: as §1

ICK = target: T3, ICK (Homo sapiens, UniProt Q9UPZ9)
T3 construct: gene CILK1
Experimental: as §1

SIK3 = SIK3 (Homo sapiens, UniProt Q9Y2K2)
SIK3, sequence (Q9Y2K2 whole entry): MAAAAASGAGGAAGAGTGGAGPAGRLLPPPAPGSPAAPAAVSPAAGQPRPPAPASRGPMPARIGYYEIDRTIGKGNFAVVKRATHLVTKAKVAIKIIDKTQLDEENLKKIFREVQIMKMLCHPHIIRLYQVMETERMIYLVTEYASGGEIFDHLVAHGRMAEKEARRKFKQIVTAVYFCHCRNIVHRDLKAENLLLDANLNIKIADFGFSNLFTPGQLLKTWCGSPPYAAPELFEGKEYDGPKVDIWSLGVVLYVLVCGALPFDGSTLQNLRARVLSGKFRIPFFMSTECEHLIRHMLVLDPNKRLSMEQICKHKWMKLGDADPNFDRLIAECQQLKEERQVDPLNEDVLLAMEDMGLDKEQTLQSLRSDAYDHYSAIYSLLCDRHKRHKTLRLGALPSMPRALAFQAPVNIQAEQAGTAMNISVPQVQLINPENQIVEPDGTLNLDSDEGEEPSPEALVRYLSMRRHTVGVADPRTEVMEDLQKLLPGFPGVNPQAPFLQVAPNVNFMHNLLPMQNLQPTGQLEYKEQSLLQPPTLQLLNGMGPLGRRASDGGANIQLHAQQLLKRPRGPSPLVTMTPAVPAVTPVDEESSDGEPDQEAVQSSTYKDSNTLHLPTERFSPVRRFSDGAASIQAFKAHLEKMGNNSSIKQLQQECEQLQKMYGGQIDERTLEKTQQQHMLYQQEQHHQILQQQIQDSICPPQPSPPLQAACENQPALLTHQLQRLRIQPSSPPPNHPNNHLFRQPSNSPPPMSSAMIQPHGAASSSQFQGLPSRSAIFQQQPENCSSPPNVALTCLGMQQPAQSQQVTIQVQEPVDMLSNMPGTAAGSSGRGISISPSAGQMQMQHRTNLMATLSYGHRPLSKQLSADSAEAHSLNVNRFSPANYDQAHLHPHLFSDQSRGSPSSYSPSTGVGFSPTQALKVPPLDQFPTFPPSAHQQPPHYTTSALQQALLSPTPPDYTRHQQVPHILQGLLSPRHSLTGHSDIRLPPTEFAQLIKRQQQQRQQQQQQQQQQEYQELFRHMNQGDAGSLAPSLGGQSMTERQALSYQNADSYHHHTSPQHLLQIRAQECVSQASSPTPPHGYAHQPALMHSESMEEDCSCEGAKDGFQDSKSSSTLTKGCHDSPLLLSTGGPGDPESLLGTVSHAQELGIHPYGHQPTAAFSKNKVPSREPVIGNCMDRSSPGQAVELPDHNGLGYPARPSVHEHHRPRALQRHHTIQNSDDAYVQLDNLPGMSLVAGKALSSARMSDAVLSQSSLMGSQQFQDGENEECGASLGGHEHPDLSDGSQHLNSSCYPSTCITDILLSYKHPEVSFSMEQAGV
Experimental: as §1

EPHA5 = EPHA5 (Homo sapiens, UniProt P54756)
EPHA5, sequence (P54756 whole entry): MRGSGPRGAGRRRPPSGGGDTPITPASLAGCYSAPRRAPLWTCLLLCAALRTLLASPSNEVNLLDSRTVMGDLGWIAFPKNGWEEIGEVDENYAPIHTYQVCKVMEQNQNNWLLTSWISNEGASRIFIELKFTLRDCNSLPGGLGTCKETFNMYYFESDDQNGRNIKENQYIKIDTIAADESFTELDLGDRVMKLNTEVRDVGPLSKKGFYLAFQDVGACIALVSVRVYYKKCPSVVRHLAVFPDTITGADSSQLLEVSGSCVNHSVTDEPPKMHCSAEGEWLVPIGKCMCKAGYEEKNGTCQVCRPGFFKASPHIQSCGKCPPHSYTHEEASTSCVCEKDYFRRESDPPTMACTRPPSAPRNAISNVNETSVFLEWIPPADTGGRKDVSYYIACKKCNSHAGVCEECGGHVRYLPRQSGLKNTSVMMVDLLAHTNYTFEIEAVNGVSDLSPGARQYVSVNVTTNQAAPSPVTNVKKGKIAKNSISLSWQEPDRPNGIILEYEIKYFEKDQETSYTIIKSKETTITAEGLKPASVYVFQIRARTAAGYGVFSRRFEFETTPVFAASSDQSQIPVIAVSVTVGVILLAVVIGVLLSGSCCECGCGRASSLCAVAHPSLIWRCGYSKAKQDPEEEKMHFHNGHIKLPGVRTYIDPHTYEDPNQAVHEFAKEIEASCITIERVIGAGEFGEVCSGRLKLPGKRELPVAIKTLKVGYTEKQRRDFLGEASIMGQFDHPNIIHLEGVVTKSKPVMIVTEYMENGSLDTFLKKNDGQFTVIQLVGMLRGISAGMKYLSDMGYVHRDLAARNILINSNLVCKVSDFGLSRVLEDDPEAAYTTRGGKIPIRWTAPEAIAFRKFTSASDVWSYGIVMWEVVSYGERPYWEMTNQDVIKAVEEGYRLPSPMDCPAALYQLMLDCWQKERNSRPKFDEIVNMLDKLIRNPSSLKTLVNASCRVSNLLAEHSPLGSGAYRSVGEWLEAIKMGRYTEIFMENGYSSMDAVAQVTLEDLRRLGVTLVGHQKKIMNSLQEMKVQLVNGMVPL
Experimental: as §1

EPHA6 = EPHA6 (Homo sapiens, UniProt Q9UF33)
Experimental: as §1

NEK9 = NEK9 (Homo sapiens, UniProt Q8TD19)
Experimental: as §1

ALK = ALK (Homo sapiens, UniProt Q9UM73)
Experimental: as §1

GRK2 = GRK2 (Homo sapiens, UniProt P25098)
Experimental: as §1

MAPK7/ERK5 = MAPK7/ERK5 (Homo sapiens, UniProt Q13164)
Experimental: as §1

PDGFRB = PDGFRB (Homo sapiens, UniProt P09619)
PDGFRB, sequence (P09619 whole entry): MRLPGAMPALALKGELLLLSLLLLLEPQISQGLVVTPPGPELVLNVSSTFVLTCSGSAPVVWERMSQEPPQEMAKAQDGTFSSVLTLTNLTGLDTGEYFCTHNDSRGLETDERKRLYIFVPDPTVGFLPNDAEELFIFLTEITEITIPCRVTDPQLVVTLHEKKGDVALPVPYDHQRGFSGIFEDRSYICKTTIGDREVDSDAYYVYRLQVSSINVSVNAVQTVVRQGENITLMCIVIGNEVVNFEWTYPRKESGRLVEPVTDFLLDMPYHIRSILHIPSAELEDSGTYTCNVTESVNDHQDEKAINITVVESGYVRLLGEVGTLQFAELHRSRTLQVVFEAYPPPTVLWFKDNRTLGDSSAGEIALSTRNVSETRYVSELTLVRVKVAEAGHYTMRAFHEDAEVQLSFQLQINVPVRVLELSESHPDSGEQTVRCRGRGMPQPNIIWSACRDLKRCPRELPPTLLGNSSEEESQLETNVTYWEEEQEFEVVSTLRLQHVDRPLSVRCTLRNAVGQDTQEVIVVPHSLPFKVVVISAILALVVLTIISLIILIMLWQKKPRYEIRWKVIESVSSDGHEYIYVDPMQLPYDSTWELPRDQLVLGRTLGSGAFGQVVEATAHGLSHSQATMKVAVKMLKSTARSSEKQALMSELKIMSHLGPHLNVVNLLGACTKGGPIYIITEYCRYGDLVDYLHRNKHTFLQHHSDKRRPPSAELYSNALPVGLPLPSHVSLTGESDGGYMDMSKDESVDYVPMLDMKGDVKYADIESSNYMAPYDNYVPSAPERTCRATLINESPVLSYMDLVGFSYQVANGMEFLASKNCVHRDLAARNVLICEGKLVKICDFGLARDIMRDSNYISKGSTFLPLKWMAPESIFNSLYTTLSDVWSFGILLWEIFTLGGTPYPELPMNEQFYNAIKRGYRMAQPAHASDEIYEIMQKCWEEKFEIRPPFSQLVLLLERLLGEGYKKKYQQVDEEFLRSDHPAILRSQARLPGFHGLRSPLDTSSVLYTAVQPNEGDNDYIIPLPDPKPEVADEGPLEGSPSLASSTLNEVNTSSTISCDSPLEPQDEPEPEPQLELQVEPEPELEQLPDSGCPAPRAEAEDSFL
Experimental: as §1

CDK1/E1 = CDK1/E1 (Homo sapiens, UniProt P06493)
Experimental: as §1

PAK6 = PAK6 (Homo sapiens, UniProt Q9NQU5)
Experimental: as §1

MAP3K7 = MAP3K7 (Homo sapiens, UniProt O43318)
Experimental: as §1

PINK1 = PINK1 (Homo sapiens, UniProt Q9BXM7)
PINK1, sequence (Q9BXM7 whole entry): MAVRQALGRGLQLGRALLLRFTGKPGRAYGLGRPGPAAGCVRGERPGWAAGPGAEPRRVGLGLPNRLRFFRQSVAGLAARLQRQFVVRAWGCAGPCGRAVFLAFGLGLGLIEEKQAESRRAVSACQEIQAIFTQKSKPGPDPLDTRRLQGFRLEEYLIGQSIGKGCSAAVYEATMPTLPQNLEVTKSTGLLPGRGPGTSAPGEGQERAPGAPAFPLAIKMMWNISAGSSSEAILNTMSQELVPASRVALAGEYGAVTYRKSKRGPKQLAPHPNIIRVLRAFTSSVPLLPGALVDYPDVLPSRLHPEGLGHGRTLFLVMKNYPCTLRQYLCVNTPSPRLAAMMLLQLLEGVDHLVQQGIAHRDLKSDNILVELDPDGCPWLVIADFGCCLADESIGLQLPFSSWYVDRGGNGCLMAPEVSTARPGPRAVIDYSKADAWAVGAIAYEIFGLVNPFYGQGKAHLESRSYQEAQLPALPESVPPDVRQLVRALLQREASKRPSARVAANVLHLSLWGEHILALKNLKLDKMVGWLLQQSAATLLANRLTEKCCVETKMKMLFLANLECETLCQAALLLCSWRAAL
Experimental: as §1

KIT = KIT (Homo sapiens, UniProt P10721)
Experimental: as §1

CDK9/K = CDK9/K (Homo sapiens, UniProt P50750)
Experimental: as §1

EGFR = EGFR (Homo sapiens, UniProt P00533)
Experimental: as §1

C=CC(=O)N1CCC[C@@H](n2nc(-c3ccc(Oc4ccccc4)cc3)c3c(N)ncnc32)C1 [Ibrutinib]
1 µM GBD00276 (ibrutinib), % inhibition (MAPK8/JNK1): 10.25% | 1 µM GBD00276 (ibrutinib), % inhibition (CTK): -75.13% | 1 µM GBD00276 (ibrutinib), % inhibition (PHKG2): 1.522% | 1 µM GBD00276 (ibrutinib), % inhibition (LRRK2): -5.334% | 1 µM GBD00276 (ibrutinib), % inhibition (MYLK2): -0.5778% | 1 µM GBD00276 (ibrutinib), % inhibition (NLK): -34.47% | 1 µM GBD00276 (ibrutinib), % inhibition (CSNK1G1/CK1G1): 4.449% | 1 µM GBD00276 (ibrutinib), % inhibition (PTK6/BRK): 98.64% | 1 µM GBD00276 (ibrutinib), % inhibition (MASTL): -9.51% | 1 µM GBD00276 (ibrutinib), % inhibition (MINK1): 7.641% | 1 µM GBD00276 (ibrutinib), % inhibition (STK4/MST1): -13.54% | 1 µM GBD00276 (ibrutinib), % inhibition (INSR): -2.978% | 1 µM GBD00276 (ibrutinib), % inhibition (PRKCZ/PKCZ): 7.244% | 1 µM GBD00276 (ibrutinib), % inhibition (PDK1): 7.444% | 1 µM GBD00276 (ibrutinib), % inhibition (CSNK2A2/CK2A2): -24.31% | 1 µM GBD00276 (ibrutinib), % inhibition (PDGFRA): 34.54% | 1 µM GBD00276 (ibrutinib), % inhibition (MAP3K14): -11.44% | 1 µM GBD00276 (ibrutinib), % inhibition (CHEK1/CHK1): -3.114% | 1 µM GBD00276 (ibrutinib), % inhibition (CAMK2B): 4.39% | 1 µM GBD00276 (ibrutinib), % inhibition (PIM2): -3.683% | 1 µM GBD00276 (ibrutinib), % inhibition (AURKB/AURB): 7.598% | 1 µM GBD00276 (ibrutinib), % inhibition (PRKCQ/PKCQ): 12.04% | 1 µM GBD00276 (ibrutinib), % inhibition (TNK2/ACK): 31.95% | 1 µM GBD00276 (ibrutinib), % inhibition (ICK): -2.761% | 1 µM GBD00276 (ibrutinib), % inhibition (SIK3): -15.95% | 1 µM GBD00276 (ibrutinib), % inhibition (EPHA5): -3.884% | 1 µM GBD00276 (ibrutinib), % inhibition (EPHA6): 17.71% | 1 µM GBD00276 (ibrutinib), % inhibition (NEK9): 2.083% | 1 µM GBD00276 (ibrutinib), % inhibition (ALK): 3.723% | 1 µM GBD00276 (ibrutinib), % inhibition (GRK2): 3.639% | 1 µM GBD00276 (ibrutinib), % inhibition (MAPK7/ERK5): -0.1217% | 1 µM GBD00276 (ibrutinib), % inhibition (PDGFRB): 19.79% | 1 µM GBD00276 (ibrutinib), % inhibition (CDK1/E1): -2.236% | 1 µM GBD00276 (ibrutinib), % inhibition (PAK6): 14.55% | 1 µM GBD00276 (ibrutinib), % inhibition (MAP3K7): -2.955% | 1 µM GBD00276 (ibrutinib), % inhibition (PINK1): -6.021% | 1 µM GBD00276 (ibrutinib), % inhibition (KIT): 2.778% | 1 µM GBD00276 (ibrutinib), % inhibition (CDK9/K): -8.235% | 1 µM GBD00276 (ibrutinib), % inhibition (EGFR): 96.63%
